Results on 9 molecules are retold here after US20200031811A1, “SUBSTITUTED MONO- AND POLYAZANAPHTHALENE DERIVATIVES AND THEIR USE” (Basilea Pharmaceutica International AG, priority 2015, published 2020).

pIC50: −log10 of the molar value.

The subject of test [1] is HCT116 colon carcinoma xenograft. The conditions noted are these: nude mice; cited from earlier work.
Test [2] concerns B16 melanoma pulmonary metastatic lesions. The conditions noted are these: in vivo; cited from earlier work.
The test system of test [3] is human pancreatic cancer cell line MiaPaCa2 (ATCC CRL-1420). In words: Cell growth assay (CellTiterGlo, 72 hours). Type of test: cell-based. The conditions noted are these: for inhibition at 100 µM: MIA PaCa-2, at 100 μM; for pIC50: MIA PaCa-2, MiaPaCa2 cells, 72 hours, read-out: IC50 MiaPaCa. An outline of the steps:
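MiaPaCa2 cells (10^3/well) seeded in supplemented DMEM overnight, then exposed in quadruplicate to compound at 100 down to 0.1 μM for 72 h at 37° C. Growth read by CellTiterGlo luminescence, medium-only background subtracted, normalised to untreated cells; IC50 = concentration reducing growth to 50%.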

A further test has as its target T1, MNK1 (Homo sapiens, UniProt Q9BUB5).
T1 construct: purchased Life Technologies or Carna Biosciences PV6023 or 02-145; host or cells: baculovirus infected insect cells
In words: MNK inhibition assay (Z-Lyte kinase assay, Ser/Thr 7 peptide). Type of test: biochemical. The conditions noted are these: for pIC50: recombinant GST-MNK1, 3 hours at 31° C. An outline of the steps: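 Recombinant GST-MNK1 from baculovirus-infected insect cells, Z-Lyte Ser/Thr 7 peptide, enzyme set for ~30% phosphorylation in buffer-only wells; 3 hours at 31° C. Compounds at 50–10000 nM (potent ones down to 0.5 nM), at least duplicate. IC50 from % substrate phosphorylation versus buffer-only wells, fluorescence read-out.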

Where [4] appears, read: read-out: Inhibition of MiaPaCa growth at indicated concentration.

T1 sequence (Q9BUB5 whole entry): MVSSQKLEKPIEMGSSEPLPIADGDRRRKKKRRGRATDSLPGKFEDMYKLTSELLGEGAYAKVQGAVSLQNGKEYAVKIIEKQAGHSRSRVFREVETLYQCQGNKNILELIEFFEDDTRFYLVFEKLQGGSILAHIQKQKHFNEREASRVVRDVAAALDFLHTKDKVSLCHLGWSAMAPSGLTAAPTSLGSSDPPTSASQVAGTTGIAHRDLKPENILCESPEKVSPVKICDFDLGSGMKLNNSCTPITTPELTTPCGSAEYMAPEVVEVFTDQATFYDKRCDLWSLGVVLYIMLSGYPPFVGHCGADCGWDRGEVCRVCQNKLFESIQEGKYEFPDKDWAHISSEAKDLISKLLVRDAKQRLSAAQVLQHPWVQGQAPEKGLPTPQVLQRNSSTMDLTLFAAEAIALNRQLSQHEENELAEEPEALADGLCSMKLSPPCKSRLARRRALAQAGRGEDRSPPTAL

For the molecule `CC(=O)C1=C(O)C=C2Oc3c(C(N)=O)c(O)cc(O)c3[C@]2(C)C1=O` [cercosporamidc], the “growth of a HCT116 colon carcinoma xenograft model” value in test [1] was “inhibiting the growth”. Further, the “outgrowth of B16 melanoma pulmonary metastatic lesions” value in test [2] was “reduceing the outgrowth”.
Regarding `COC(=O)c1cccc(-c2cncc3ccc(CN4CCC(N)CC4)cc23)c1` [Example 12], in test [3] (setting [4]), the inhibition at 100 µM amounted to 60%. Besides, the inhibition at 10 µM on MNK1 (at 10 μM, read-out: Inhibition of MNK1 activity at indicated concentration) is 92%.
For the molecule `N[C@H]1CC[C@H](Nc2cc3c(-c4cc5ccccc5o4)cncc3cc2Cl)CC1` [Example 140, N4-[4-(Benzofuran-2-yl)-7-chloro-6-isoquinolyl]cyclohexane-1,4-diamine], the pIC50 in test [3] was 5.73; on MNK1, 8.00.
For `COc1cc(CN2CCC(N)CC2)cc2c(-c3ccc(F)c(F)c3)cncc12` [Example 243] the same measures were 5.24 and 6.46.
As for `Cn1cc(-c2cncc3ccc(CN4CCC(N)CC4)cc23)cn1` [Example 203], the inhibition at 50 µM in test [3] (MIA PaCa-2, at 50 μM, read-out: Inhibition of MiaPaCa growth at indicated concentration) is 48%. The pIC50 on MNK1 is 6.20.
Consider `NC1CCN(Cc2cc(Cl)c3cncc(-c4ccccc4)c3c2)CC1` [Example 241], for which the pIC50 is 4.98 in test [3] and 6.67 on MNK1.
For `NC1CCN(Cc2ccc3cncc(-c4cccs4)c3c2)CC1` [Example 178] the same measures were 5.30 and 6.81.
Take `COc1cc(CN2CCC(N)CC2)cc2c(-c3ccco3)cncc12` [Example 244]: the pIC50 in test [3] is 4.85; on MNK1 it was 6.94.
Regarding `NC(=O)c1ccc(-c2cncc3ccc(CN4CCC(N)CC4)cc23)cc1` [Example 20, 4-[6-[(4-Amino-1-piperidyl)methyl]-4-isoquinolyl]benzamide], in test [3] (setting [4]), the inhibition at 100 µM came out at 62%. Besides, the inhibition at 1 µM at MNK1 (at 1 μM, read-out: Inhibition of MNK1 activity at indicated concentration) was found to be 45%.
